Measured values taken from patent publication US20260306460A1, “COMPOSITION FOR REMOVING AND INHIBITING SENESCENT CELLS, AND USES THEREOF” (LIFECEUTIX CO., LTD., priority 2023, published 2026).

Tests used:
Type in all cases: in vivo, mouse
[1] = tested on: bleomycin-induced pulmonary fibrosis mice; test: Bleomycin-induced pulmonary fibrosis mice, Example 31, Table 56; settings: untreated = 100%
Outline: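 After treatment with test compound or vehicle alone, lungs of bleomycin-induced pulmonary fibrosis mice were harvested. Total RNA extracted and gene expression quantified by qRT-PCR.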

[2] = tested on: doxorubicin-induced aged C57BL6J mice; test: Thrombosis (Serpine1, Plau, TIMP1 mRNA, tail bleeding time) in doxorubicin-aged mice, Example 22-10, Table 39; settings: for Plau mRNA / Serpine1 mRNA / TIMP1 mRNA: qRT-PCR, doxorubicin-induced aged mice, amount after aging calculated as 100%; for Tail amputation bleeding time: tail incised 5 mm from the tip, saline 37° C., untreated 51 (±3.6)
Experimental: (§1) Eight-week-old male C57BL6J mice (KRIBB Laboratory Animal Resource Center) were acclimated to the experimental environment for one week. Afterwards, the anticancer agent doxorubicin was administered intraperitoneally at a concentration of 10 mg/kg, inducing aging for more than 10 days. The aging-induced mice were randomly assigned to experimental and control groups. LX-403 was mixed with a 10% ethanol solution of PEG400 and administered orally at a concentration of 25 mg/kg or intradermally at a concentration of 1 μM for 21 days. LX-1801 was mixed in distilled water with 4% DMSO, 30% PEG300, and 5% Tween80 and administered intradermally at a concentration of 0.4 μM daily for 21 days. LX-2001 was mixed in PBS and administered intradermally at a concentration of 2 μM daily for 21 days. LX-2002 was mixed in distilled water with 4% DMSO, 30% PEG300, and 5% Tween80 and administered intradermally at a concentration of 2 μM daily for 21 days. […] LX-2005 was mixed in distilled water with 4% DMSO, 30% PEG300, and 5% Tween80 and administered intradermally at a concentration of 90 μM daily for 21 days. LX-2007 was mixed in distilled water with 4% DMSO, 30% PEG300, and 5% Tween80 and administered intradermally at a concentration of 90 μM daily for 21 days. […] LX-3002 was mixed in distilled water with 4% DMSO, 30% PEG300, and 5% Tween80 and administered orally at a concentration of 10 mg/kg daily for 21 days. […] LX-5411 was mixed in 5% phosphate-buffered saline (PBS) and administered orally at a concentration of 10 mg/kg daily for 21 days or intradermally at a concentration of 3 μM. LX-5701 was mixed in PBS and administered orally at a concentration of 360 mg/kg daily for 21 days. LX-6807 was mixed in saline and administered intraperitoneally at a concentration of 1 mg/kg daily for 21 days. The control group received only the solution in the same volume. After the end of drug administration, the methods described in each example below were performed.
Using cDNA synthesized using the same method as in Example 7-6 of WO2023-085787 A1, qRT-PCR was performed and analyzed for the liver-produced senescence-associated secretory factor (SASP) and hemostasis-related factors like Serpine1 (PAI1), Plau (Urokinase), and TIMP1. To determine whether the treatment affects in vivo hemostasis, tail bleeding time was analyzed in mice induced to age by chemotherapy. Specifically, for tail bleeding analysis, mice were anesthetized, and the tail was incised 5 mm from the tip with a razor blade. The bleeding tail was then placed in a 15 ml test tube containing saline preheated to 37° C., and the time until blood flow stopped was measured. The bleeding time was determined when bleeding stopped for 10 seconds. […] The qPT-PCR results were compared with the amounts of each factor after aging was induced, calculating the amount of each factor as 100% and then treating it with the test compound.

[3] = tested on: doxorubicin-induced aged C57BL6J mice; test: Bone marrow function (CAFC assay) in doxorubicin-aged mice, Example 22-12, Table 41; settings: bone marrow of doxorubicin-induced aged mice, 5 weeks of culture; untreated 1.8 (±0.1)
Experimental: as §1
Damage to the immune system, including the bone marrow, after chemotherapy is known to induce inflammatory responses and contribute to drug resistance and adverse effects. To analyze the function of bone marrow hematopoietic cells in mice induced to age by the anticancer agent, a cobblestone-area-forming-cell (CAFC) assay was performed. Specifically, bone marrow cells (BMCs) were collected from the femurs and tibias of mice, and BM-MNCs (mono-nuclear cells) were cultured in MethoCult™ GF M3434 methylcellulose medium (Stem Cell™ Technologies Inc, Canada). FBMD-1 stromal cells were seeded in each well of a 96-well plate to prepare a support cell stromal layer. […] After 5 weeks of culture, CAFCs were counted using an optical microscope.

[4] = tested on: carbon tetrachloride-induced liver fibrosis C57BL6J mice; test: Carbon tetrachloride liver disease in mice (p16, IL6, Col1a1 mRNA, AST), Example 26, Table 50; settings: daily for 21 days, untreated 100%; for Col1a1 mRNA / IL6 mRNA / p16 mRNA: liver
Experimental: Eight-week-old male C57BL6J mice (KRIBB Laboratory Animal Resource Center) were acclimated to the experimental environment for one week. Carbon tetrachloride (CCL4) was administered intraperitoneally at a concentration of 0.5 μl/g, and aging was induced for at least six weeks. The aging-induced mice were randomly assigned to experimental and control groups. […] The control group received only the solution in the same volume. After the drug administration was terminated, mice were sacrificed, and RNA was extracted from the liver in the same manner as in Example 7-2 of WO2023-085787 A1, and qRT-PCR was performed using the synthesized cDNA. […] The mRNA and AST amounts after aging was induced were calculated as 100% and compared with the mRNA amount of p16 after treatment with the test compound.

| Compound | Lung p16 mRNA [1] | Col1a1 mRNA [1] | Plau mRNA [2] | Serpine1 mRNA [2] | TIMP1 mRNA [2] | Tail amputation bleeding time [2] | CAFCs/10^5 BMCs [3] | Col1a1 mRNA [4] | IL6 mRNA [4] | p16 mRNA [4] | Serum AST [4] |
| --- | --- | --- | --- | --- | --- | --- | --- | --- | --- | --- | --- |
| O=C(C(C[N+](=O)[O-])=NO)N1CCN(C(c2ccc(Cl)cc2)c2ccc(Cl)cc2)CC1 [LX-403] | 32 (±1.4) % | 44 (±3.1) % | – | – | – | – | – | – | – | – | – |
| S=C(N/N=C1\CCCc2cccnc21)N1CCN(c2ccccn2)CC1 [LX-801] | 48 (±4.8) % | 43 (±10.6) % | – | – | – | – | – | – | – | – | – |
| C[C@@H]1CC[C@@]23C[C@H](O)C(=O)[C@@]2(O)[C@]1(C)[C@H](OC(=O)CCl)C[C@@H](C1=CCn2c(=O)n(-c4ccccc4)c(=O)n2C1)[C@@H]3C [LX-1801, (2S,3aS,4S,5R,7R,8S,8aS,11R)-7-(1,3-Dioxo-2-phenyl-2,3,5,8-tetrahydro-1H-[1,2,4]triazolo[1,2-a]pyridazin-6-yl)-2,3a-dihydroxy-4,8,11-trimethyl-3-oxooctahydro-1H-4,8a-propanoazulen-5-yl 2-Chloroacetate] | 53 (±13.7) % | 38 (±20.8) % | – | – | – | – | – | – | – | – | – |
| CCCC\C=C/C=C/C=C\CCCCCCCC(=O)O [LX-2707, Punicic acid] | – | – | 65 (±1.8) % | 52 (±3.5) % | 46 (±1.5) % | 80 (±4.3) sec | 2.7 (±0.2) CAFCs/10^5 BMCs | 76 (±2.5) % | 56 (±2.1) % | 68 (±1.6) % | 79 (±5.6) % |
| COC(=O)[C@H]1Cc2c([nH]c3ccccc23)[C@H](c2ccc(S(C)(=O)=O)cc2)N1C(=O)CCl [LX-5401, methyl (1S,3R)-2-(2-chloroacetyl)-1-(4-(methylsulfonyl)phenyl)-2,3,4,9-tetrahydro-1H-pyrido[3,4-b]indole-3-carboxylate] | 67 (±8.1) % | 59 (±12.8) % | – | – | – | – | – | – | – | – | – |
| C#CC(=O)N1[C@@H](CCCC)Cc2cc(OC)ccc2[C@@H]1c1ccc(NC23CC4CC(CC(C4)C2)C3)cc1 [LX-5411] | 61 (±13.2) % | 44 (±11.1) % | – | – | – | – | – | – | – | – | – |
| O=C1C2CCN(CC2)C1CNC(=O)C(F)(F)F (stereo not shown) [LX-5701] | – | – | 53 (±13.9) % | 45 (±20.1) % | 53 (±11.2) % | 89 (±15.2) sec | 3.3 (±0.2) CAFCs/10^5 BMCs | 62 (±6.7) % | 53 (±17.6) % | 70 (±6.2) % | 77 (±8.0) % |
| Cc1cccc([C@H](C)c2cnc[nH]2)c1C [LX-6807, Dexmedetomidine] | – | – | 45 (±3.6) % | 31 (±1.9) % | 59 (±1.9) % | 93 (±6.4) sec | 3.5 (±0.2) CAFCs/10^5 BMCs | 51 (±3.1) % | 58 (±2.6) % | 67 (±3.0) % | 75 (±1.4) % |
| Tocofersolan [LX-3001] | – | – | 69 (±2.2) % | 76 (±2.1) % | 73 (±3.1) % | 72 (±2.6) sec | 2.1 (±0.2) CAFCs/10^5 BMCs | 71 (±2.4) % | 65 (±3.4) % | 76 (±3.7) % | 82 (±4.5) % |
